These results are taken from publication PMC12010006, “Subnanomolar MAS-related G protein-coupled receptor-X2/B2 antagonists with efficacy in human mast cells and disease models” (Signal Transduction and Targeted Therapy, 2025).

Molecules are shown by their SMILES. Read-outs that look alike come from different tables or passages of the source.

Data set [1] can be described thus: MTT cytotoxicity assay, 1321N1 astrocytoma cells. In kind it is cell-based. The conditions noted are these: human; for cytotoxicity at 72 h, 10000 nM: up to 10,000 nM, read-out: Cytotoxicity % effect. The procedure: Potential cytotoxicity of 24 and its similarly potent analogs 27 and 30 was assessed in 3-(4,5-dimethylthiazol-2-yl)-2,5-diphenyl-2H-tetrazolium bromide (MTT) assays performed on human 1321N1 astrocytoma cells (Supplementary Table S3). This cell line was chosen since it is well-established for the screening of cytotoxic drugs, making it a reliable choice for assessing cytotoxicity.[46]
For the experiment, 1321N1 astrocytoma cells were seeded at a density of 1 × 10^5 cells/well in 180 µL of cell medium into transparent 96-well plates, whereby the outer wells only contained buffer (to avoid an edge effect). Cells were incubated for 24 h at 37°C, 5% CO2. Compound dilutions were prepared in DMSO. […] Subsequently, 20 µL of these compound dilutions were added to each well so that astrocytoma cells were incubated with varying concentrations of MRGPRX2 antagonists (0.01 µM–10 µM) at 37° C, 5% CO2. 5-Fluoruracil, a cytostatic drug, served as a positive control. Medium-containing DMSO in the absence of a compound served as a negative control. After 71 h, […] of MTT solution (5 mg/mL, prepared in Millipore water) was added to each well (final concentration 0.5 mg/mL) and cells were incubated again for another hour. Subsequently, the medium was removed, and cells were lyzed by adding 100 µL of DMSO per well. In order to dissolve the produced formazan dye crystals, plates were incubated for 2 min on a rotary shaker (150 rpm). Afterward, the UV absorbance at 570 nm was measured by using SoftMax® Pro5.1 Microplate Data Acquisition & Analysis Software (Molecular Devices, Sunnyvale, CA, USA). The UV absorbance at 690 nm was measured directly afterward to eliminate the background absorbance of residual medium and cell components. The values of the measured UV absorbance at 690 nm were subtracted from the values obtained by the measurement of UV absorbance at 570 nm. Three to four independent experiments were performed, each in triplicate.
In general terms: Tetrazolium dyes change colour on reduction, which living cells bring about.

Data set [2] can be described thus: Metabolic stability in human liver microsomes. In kind it is in vitro ADME. The following applies: both sexes, human liver microsomes 0.25 mg/ml, compound 1 µM; for half-life at 1 µM: human, liver microsomes, read-out: T1/2 (half-life); for microsomal CLint at 1 µM: read-out: Clint (intrinsic clearance). Background: Liver microsomes are a subcellular fraction often used to study metabolism.

Data set [3] has as its target T1, MRGPRX2 (Homo sapiens, UniProt Q96LB1).
T1 sequence (Q96LB1 1-330): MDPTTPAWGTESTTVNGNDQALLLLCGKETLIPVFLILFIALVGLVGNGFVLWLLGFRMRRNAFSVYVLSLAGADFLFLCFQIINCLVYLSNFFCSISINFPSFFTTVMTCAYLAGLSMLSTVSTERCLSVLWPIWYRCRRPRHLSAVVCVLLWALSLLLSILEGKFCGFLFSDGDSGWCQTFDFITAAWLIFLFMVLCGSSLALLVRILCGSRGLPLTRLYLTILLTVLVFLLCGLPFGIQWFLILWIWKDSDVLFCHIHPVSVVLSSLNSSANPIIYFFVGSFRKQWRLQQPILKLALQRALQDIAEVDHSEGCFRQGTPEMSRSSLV
Put plainly: β-arrestin assay (agonist mode), β-arrestin CHO cells recombinantly expressing MRGPRX2. In kind it is cell-based. The following applies: for EC50: agonist test, read-out: β-Arrestin assay EC50 ± SEM; for β-Arrestin assay % activation: normalized to CST-14 (EC80 5,000 nM). The text has this: Eurofins DiscoverX (Fremont, CA, USA) provided engineered Chinese hamster ovary (CHO) cells stably expressing β-arrestin-2 fused to a large β-galactosidase fragment (enzyme acceptor, EA). These CHO-K1-β-arrestin-2 cells were commercially available (93-0164). CHO-K1-β-arrestin-2 cells that additionally expressed MRGPRX1, -2, or -4 fused to the fragment ProLink™ (PK) were also purchased from the same company (93-0919C2, 93-0309C2, and 3-0541C2A, respectively). CHO cells expressing MRGPRX3 were generated as previously […].[31] The cells were grown in F-12 Ham Nutrient Mixture (Life Technologies) supplemented with 10% FBS, 100 U/mL of penicillin, 100 µg/mL of streptomycin (PAN-Biotech), 300 μg/mL of hygromycin B (PAN-Biotech), and 800 μg/mL of gentamicin (PAN-Biotech) at 37 °C and 5% CO2.).
The assays were carried out as previously described.[22] […] After 30 min of incubation at 37 °C and 5% CO2, Cortistatin-14 (CST-14, Bioscience, Bristol, United Kingdom) or another MRGPRX2 agonist that served as a standard agonist was added, and the mixture was incubated for 90 min at 37 °C and 5% CO2. Next, a detection reagent (50 µL, DiscoverX) was added, and the mixture was incubated at room temperature in the dark for 60 min. Chemiluminescence was measured on a Mithras LB 940 plate reader (Berthold Technologies, Bad Wildbad, Germany). The results represent means ± SEM of three to five independent experiments, each in duplicates.
^d β-Arrestin CHO cells recombinantly expressing MRGPRX2
^f Percentage of activation of normalized to CST-14 (EC80 5,000 nM)

In data set [4] the target is T1, MRGPRX2. Kind of data set: β-arrestin recruitment assay (antagonist mode), β-arrestin-CHO cells recombinantly expressing MRGPRX2. The conditions noted are these: versus CST-14 (EC80 1,000 nM, EC50 483 nM); Cheng-Prusoff; read-out: β-Arrestin assay Ki ± SEM. Set-up: expressed in transfected cells. In kind it is cell-based. For orientation: Arrestin recruitment assays detect the binding of arrestin to an activated receptor.

Data set [5] has as its target T1, MRGPRX2. Kind of data set: Ca2+ mobilization assay, LN229 cells overexpressing MRGPRX2. In kind it is cell-based. Set-up: expressed in transfected cells; host or cells: LN229 human glioblastoma cells; plasmid pLXSN-MRGPRX2 (Addgene #213960). The following applies: for Ki: versus CST-14 (EC80 800 nM, EC50 452 nM), Cheng-Prusoff, read-out: Ca2+ assay Ki ± SEM; for MRGPRX2 antagonistic potency in Ca2+ assay, in words: versus CST-14. As to the method:
Glioblastoma LN229-MRGPRX2 stably expressing MRGPRX2 (produced by retroviral transfection) were seeded into black sterile 96-well microplates at a density of 5 × 10^4 cells/well in 200 µL of DMEM/F12-Nut Mix medium, supplemented with 10% FCS, 100 U/mL of penicillin 100 µg/mL of streptomycin, and 200 µg/mL of G418 and incubated for 18–22 h.
The next day Fluo-4 AM Solution (1 mM) (Thermo Fisher Scientific) was prepared and used to prepare cell loading dye solution consisting of 4970 µL of Hank’s Buffered Saline Solution (HBSS) buffer, 15 µL of 20% Pluronic-F and 15 µL of 1 mM Fluo-4 AM. Next, the cell medium was removed and exchanged for 40 µL of dye solution per well (final concentration of Fluo-4 AM: 3 µM). The cell plate was incubated for 60 min in the dark at room temperature, then the dye solution was removed and replaced by 189 µL HBSS. Subsequently, 1 µL of antagonist diluted in DMSO was added and incubated for 30 min at room temperature and in the dark (final DMSO concentration 0.5%, v/v). CST-14 or another agonist prepared in HBSS as well as carbachol (final concentration 100 µM) were pipetted (10 µL) using a FlexStation® 3 Multi-Mode Microplate Reader. For the determination of baseline fluorescence, HBSS buffer containing solvent of the investigated compound was used. Fluorescence was measured for 120 intervals of 1 s (number of flashes: 10) at a wavelength of 525 nm (excitation 485 nm) using the SoftMax® Pro5.1 Microplate Data Acquisition & Analysis Software. Three independent experiments were performed in duplicates. Measurements are provided in relative fluorescence units and normalized to the maximal effect of CST-14.

The target in data set [6] is T1, MRGPRX2. Set-up: expressed in transfected cells; host or cells: LN229 human glioblastoma cells; plasmid pLXSN-MRGPRX2 (Addgene #213960); method as in earlier work. The following applies: read-out: EC50 as MRGPRX2 agonist; cited from earlier work.

Usually CC50 stands for the concentration that lowers cell viability or growth by half. Lower therefore signals greater toxicity to the cells. One may read the EC50 as the concentration that produces a half-maximal response. Usually Ki stands for the dissociation constant of the complex between target and ligand, obtained from inhibition or displacement. Regarding `CCc1c(C(C)C)[nH]c2nc3cc(C)c(C)cc3n2c1=O` [Compound 27], in data set [1], the CC50 at 72 h was greater than 10000 nM and the cytotoxicity at 72 h, 10000 nM amounted to 28%. For the same molecule, in data set [2], the half-life at 1 µM was found to be 10.6 min and the microsomal CLint at 1 µM turned out to be 131 µL/min/mg. Also, in data set [3], the EC50 was greater than 10000 nM and the “β-Arrestin assay % activation” value amounted to 0%. Further, the Ki in data set [4] came out at 28.5 ± 23.9 nM. In data set [5], the “fold less potent than 24” value came out at 5 fold and the inhibition constant Ki was determined as 6.64 nM.

On to `CCc1c(C(C)C)[nH]c2nc3cc(C)ccc3n2c1=O` [Compound 29], for which, in data set [3], the EC50 is greater than 10000 nM and the “β-Arrestin assay % activation” value is -2%. Besides, the inhibitory constant (Ki) in data set [4] worked out at 29.6 ± 19 nM. In data set [5], the “fold improved potency compared to 27” value came out at 40 fold; the “MRGPRX2 antagonistic potency in Ca2+ assay, in words” value (“MRGPRX2 antagonistic potency” for short) is given as “subnanomolar potencies”; the inhibitory constant (Ki) was 0.161 nM.

In the case of `CCc1c(C(C)C)[nH]c2nc3cc(F)ccc3n2c1=O` [Compound 30, 3-ethyl-8-fluoro-2-isopropylbenzo[4,5]imidazo[1,2-a]pyrimidin-4(1H)-one], in data set [1], the 50% cytotoxic concentration (CC50) at 72 h is greater than 10000 nM and the cytotoxicity at 72 h, 10000 nM was found to be 30%. Besides, in data set [2], the half-life at 1 µM came out at 14 min and the microsomal CLint at 1 µM was found to be 100 µL/min/mg. Further, in data set [3], the EC50 was greater than 10000 nM and the “β-Arrestin assay % activation” value is -3%. Moreover, the inhibitory constant (Ki) in data set [4] was determined as 5.89 ± 2.86 nM. Moreover, in data set [5], the “MRGPRX2 antagonistic potency” value is “subnanomolar potencies” and the Ki came to 0.455 nM.

Take `CCc1c(C(C)C)[nH]c2nc3ncc(F)cc3n2c1=O` [Compound 32]: in data set [3], the EC50 was greater than 10000 nM and the “β-Arrestin assay % activation” value is listed as -3%. In addition, in data set [4], the inhibition constant (Ki) amounted to 824 ± 553 nM. For the same molecule, in data set [5], the “MRGPRX2 antagonistic potency” value was “reduced potency dramatically” and the inhibitory constant (Ki) came to 931 ± 685 nM.

As to `CCc1c(C(C)C)[nH]c2nc3nc(F)ccc3n2c1=O` [Compound 33], in data set [2], the half-life at 1 µM turned out to be 48.8 min and the microsomal CLint at 1 µM is 28.4 µL/min/mg. Moreover, the Ki in data set [4] is 1610 nM. For the same molecule, in data set [5], the “MRGPRX2 antagonistic potency” value was “reduced potency dramatically” and the Ki was found to be 906 ± 137 nM.

On to `CN(C)[C@@H]1CCN(c2cc(-c3ccccc3)nc3ccnn23)C1` [ZINC-3573], for which the half-maximal effective concentration (EC50) in data set [6] was 760 nM.
